A short description of data set [1]: Stability studies on guanfacine prodrugs in buffers. The data set is classed as physicochemical.
A further data set can be described thus: Solubility. As to conditions: Solubility.
Data set [2] in a line: Comparative bioavailability study of guanfacine in monkeys given guanfacine or guanfacine prodrug. As to conditions: for Cmax: monkey, plasma, po, 0.5 mg/kg. The data set is classed as in vivo, monkey. As to the method:
Blood samples were taken at various times after administration and submitted to analysis for the parent drug and prodrug using a qualified LC-MS-MS assay. The following pharmacokinetic parameters derived from the plasma analytical data were determined using Win Nonlin;

Another data set relates to rat. Kind of data set: Elevated Plus-Maze Test in the rat. The data set is classed as in vivo. From the text: The method, which detects anxiolytic activity, follows that described by Handley and Mithani (Naunyn. Schmied. Arch. Pharmacol., 327, 1-5, 1984). Rodents avoid open spaces (the open arms of an elevated plus-maze). The percentage of time spent on the open arms and the number of entries in the open arms are considered to be the best measures of anxiety (File, S. E. 1991. Animal models of anxiety. In Biological Psychiatry (G. Racagni, N. Brunello, and T. Fukuda, eds.) pp. 596-599. Elsevier, New York.).
Anxiolytics increase exploratory activity in the open arms, as indicated by increased time spent on the open arms and/or by increased % open-arm entries.

The subject of the next data set is rat GIT transit. Kind of data set: Charcoal propulsion test (gut motility) in rat. The settings on record: oral; for % inhibition of rat GIT transit: 60 min before charcoal. The data set is classed as in vivo. On the procedure: The effect of a drug on gut motility can be studied by means of the charcoal propulsion test.
The method used was based on that described by Takemori et al. (J. Pharmacol. Exp. Ther. 169:39, 1969). Test treatments were administered orally 60 minutes prior to an oral dose of a 10% suspension of charcoal in 2.5% gum Arabic (2 ml/kg). Twenty minutes after dosing with charcoal, the rats were sacrificed and the entire gastrointestinal tract was removed quickly and carefully. The distance that the charcoal meal had traveled toward the caecum was measured and expressed as a percentage of the total gut length.

A short description of data set [3]: Microdose comparative bioavailability study in healthy adult subjects. The data set is classed as in vivo. The settings on record: both sexes, plasma, healthy human volunteers, oral, 100 µg free base. As to the method: Blood samples were withdrawn pre-dose and at 0.5, 1, 2, 3, 4, 5, 6, 8, 12, 16, 24, 32, and 48 hours post dose and submitted to analysis for the parent drug and prodrug using a validated LC-MS-MS assay. The following pharmacokinetic parameters derived from the plasma analytical data were determined;

Data set [4] can be described thus: Pharmacokinetics of guanfacine and prodrug in rat hepatic portal and tail veins after oral prodrug. Format: in vivo. As to conditions: 1 mg/kg. The text has this:
The collection of blood from the hepatic portal vein following oral administration allows the analysis of absorbed prodrug and active drug levels prior to first pass metabolism in the liver. Systemic levels can be measured by sampling of blood from the tail vein. Rats were surgically prepared under isofluorane anaesthesia by attaching a silicon catheter to the portal vein then exteriorising it at the nape of the neck with a blood collection port attached. Oral doses of compound 3 were administered by gavage as a single bolus dose at a dose volume of 10 mL/kg. At each sampling time serial point blood samples (approximately 0.2 mL) were taken simultaneously from the lateral tail vein cannula and the hepatic portal cannula. After collection of the final blood sample each animal was killed by cervical dislocation. […] Pharmacokinetic parameters in portal and systemic plasma were derived by non-compartmental analysis (linear/logarithmic trapezoidal) using WinNonlin (Version 4.1) software.

In another data set the target is T1, a-2A adrenoceptor (Homo sapiens, UniProt P08913).
T1 construct: expressed in transfected cells; host or cells: CHO cells
T1 sequence (P08913 1-465): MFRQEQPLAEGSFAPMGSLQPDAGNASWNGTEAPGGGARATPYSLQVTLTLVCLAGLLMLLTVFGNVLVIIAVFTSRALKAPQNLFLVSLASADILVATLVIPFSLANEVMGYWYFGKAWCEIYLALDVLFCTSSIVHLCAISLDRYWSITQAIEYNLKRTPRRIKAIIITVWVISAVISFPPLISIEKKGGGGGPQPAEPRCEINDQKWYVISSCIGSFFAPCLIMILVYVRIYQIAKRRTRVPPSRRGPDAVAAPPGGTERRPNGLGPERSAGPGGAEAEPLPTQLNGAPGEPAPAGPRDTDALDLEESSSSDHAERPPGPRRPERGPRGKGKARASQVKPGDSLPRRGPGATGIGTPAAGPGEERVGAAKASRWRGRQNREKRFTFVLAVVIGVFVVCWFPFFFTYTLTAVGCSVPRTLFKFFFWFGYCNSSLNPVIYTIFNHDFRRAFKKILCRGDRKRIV
Kind of data set: a-2 adrenoceptor binding assay, [3H] RX821002 competition. As to conditions: human recombinant CHO cells, [3H] RX821002 (1 nM). The text has this:
The activation of this receptor is responsible for its intended therapeutic effect. […] The binding assay methodology employed in this study followed that described by […] et al. (Eur. J. Pharmacol. 167:95-104, 1989) and used human recombinant CHO cells expressing a-2 adrenceptors. The competitive binding ligand was [3H]

For data set [5] the following is noted: as early as; cited from earlier work.
Setting [6] is: pH 1.2, 37° C., 0.1M HCl/NaCl buffer, 1 h.
The mark [7] stands for this setting: pH 1.2, 37° C., 0.1M HCl/NaCl buffer, time 0.
Setting [8] is: pH 3.0, 20° C., 0.1M citrate buffer, 2 h.
Setting [9] is: pH 3.0, 20° C., 0.1M citrate buffer, time 0.
The mark [10] stands for this setting: pH 6.8, 37° C., 0.1M phosphate buffer, 2 h.
[11] abbreviates: pH 6.8, 37° C., 0.1M phosphate buffer, time 0.
Where [12] appears, read: pH 7.4, 37° C., 0.1M phosphate buffer, 2 h, listed as Guanfacine (2-Hydroxyethyl) Carbamate.
The mark [13] stands for this setting: pH 7.4, 37° C., 0.1M phosphate buffer, time 0.
Setting [14] is: DMSO, organic solvent or mixture, in DMSO.
[15] abbreviates: dose 00.1 mg/kg (guanfacine free base equivalents).
Setting [16] is: dose 00.3 mg/kg (guanfacine free base equivalents).

The structures appear in SMILES notation. Where “and” joins values, the source holds several entries; their conditions need not be identical. Equal entries are not always repeated. Structures can show the parent of a compound that is named as a salt. Where two headings read alike, the source gives them in different places.

The source of these data is patent publication US20120065152A1 (SHIRE LLC, priority 2010, published 2012).

With `NC(=NC(=O)Cc1c(Cl)cccc1Cl)NC(=O)OCCO` [Compound 19, 2-{N′-[2-(2,6-Dichloro-phenyl)-acetyl]-guanidinocarbonyloxy}ethanol], the Active drug in [1] (setting [6]) amounted to 0.5; in data set [1] (setting [7]), 0.0; in data set [1] (setting [8]) it was 0.4; in [1] (setting [9]), 0.0; in data set [1] (setting [10]) it was 9.8; in data set [1] (setting [11]), 0.0. The Active drug in [1] (setting [12]) was 22.6 and 22.3; in data set [1] (setting [13]) it was 0.0. Further, the Pro-drug is 91.4 and 91.5 in data set [1] (pH 1.2, 37° C., 0.1M HCl/NaCl buffer, 1 h, listed as Guanfacine (2-Hydroxyethyl) Carbamate); 100 in [1] (setting [7]); 98.0 in data set [1] (setting [8]); 100 in data set [1] (setting [9]); 87.4 and 87.5 in [1] (pH 6.8, 37° C., 0.1M phosphate buffer, 2 h, listed as Guanfacine (2-Hydroxyethyl) Carbamate); 100 in data set [1] (setting [11]). Also, the Pro-drug in data set [1] (setting [12]) is 72.5 and 73.0; in data set [1] (setting [13]) it was 100. Also, the solubility in the data set “Solubility” (setting [14]) is more than 10000 µg/mL; in “Solubility” (water, in water), less than 1000 µg/mL; in “Solubility” (water/CH3CN (1:1), aqueous with cosolvent or surfactant or cyclodextrin, in water/CH3CN (1:1)), more than 10000 µg/mL. In [2], the Cmax was found to be 60.8 ng/mL. Besides, in the data set on rat (10 mg/kg, NS), the “Change in time spent in the open arms” value was “+69%”. The “Change in percent of entries in open arms” value in the data set with rat (10 mg/kg, p<0.05) is “+87%”. Moreover, the “Efficacy in the Elevated Plus-Maze Test” value in the data set on rat (rat) is “efficacious”.

As to `CCOC(=O)NC(N)=NC(=O)Cc1c(Cl)cccc1Cl.Cl` [Compound 3, {N′-[2-(2,6-Dichloro-phenyl)-acetyl]-guanidinocarbonyloxy}ethane Hydrochloride], the “% inhibition of rat GIT transit” value in the data set on rat GIT transit (setting [15]) was found to be 15%; in the data set on rat GIT transit (setting [16]), 56%; with rat GIT transit (dose 100 mg/kg (guanfacine free base equivalents)) it was 57%. Besides, the half-life in [3] (n = 4, read-out: t½, analyte Compound 3 (converted)) was 57 ± 11.4 min. In addition, in data set [3] (read-out: AUC0-t, analyte Compound 3), the AUC(0-t) came to 0.092 ± 0.043 ng·h/mL. Also, the Cmax in data set [3] (read-out: Cmax, analyte Compound 3) stood at 0.089 ± 0.038 ng/mL; in data set [4] (hepatic portal vein plasma, read-out: Hepatic portal vein Prodrug Cmax) it was 149 ng/mL; in [4] (tail vein (systemic) plasma, read-out: Tail vein Prodrug Cmax), 16.4 ng/mL; in data set [2], 0.93 ng/mL. For the same compound, the AUC in data set [4] (hepatic portal vein plasma, read-out: Hepatic portal vein Prodrug AUC) was found to be 397 ng·h/mL; in [4] (tail vein (systemic) plasma, read-out: Tail vein Prodrug AUC), 88.6 ng·h/mL. In addition, the solubility in “Solubility” (setting [14]) is more than 10000 µg/mL; in the data set “Solubility” (water, in water) it was less than 1000 µg/mL. Moreover, on a-2A adrenoceptor, the Ki was more than 10 µM. Moreover, in [2] (monkeys, 0.5 mg/kg guanfacine free base equivalents), the “Time after administration up to which systemic prodrug was detectable” value is “up to 24 hours”.

Turning to `N=C(N)NC(=O)Cc1c(Cl)cccc1Cl` [Guanfacine, N-Amidino-2-(2,6-dichlorophenyl)acetamide monohydrochloride, reference compound], the “% inhibition of rat GIT transit” value amounted to 41% with rat GIT transit (setting [15]) and 56% in the data set on rat GIT transit (setting [16]). For the same compound, in the data set on rat GIT transit (0.1 mg base/kg), the “Reduction in the distance traveled by the charcoal plug within 20 minutes, compared to control group” value was “about 41%”. Further, the “Time after dosing at which peak plasma drug levels are reached” value in [5] is not below 1 h.

Regarding `CCC(C)OC(=O)NC(N)=NC(=O)Cc1c(Cl)cccc1Cl.Cl` (stereo not drawn) [Compound 7, 2-{N′-[2-(2,6-Dichloro-phenyl)-acetyl]-guanidinocarbonyloxy}-butane Hydrochloride], the Active drug in data set [1] (setting [6]), in [1] (setting [7]), in data set [1] (setting [8]), in data set [1] (setting [9]), in data set [1] (setting [10]) and in data set [1] (setting [11]) was 0.0 throughout. Further, the Active drug in data set [1] (pH 7.4, 37° C., 0.1M phosphate buffer, 2 h) is recorded as 0.0; in data set [1] (setting [13]), 0.0. The Pro-drug in data set [1] (setting [6]) was 95.9; in data set [1] (setting [7]), 100; in data set [1] (pH 3.0, 20° C., 0.1M citrate buffer, 2 h, listed as Guanfacine 2-Butanol Carbamate Hydrochloride, Hydrochloride), 98.7 and 98.9; in [1] (setting [9]), 100; in data set [1] (setting [10]) it was 93.4; in data set [1] (setting [11]), 100. For the same compound, the Pro-drug in data set [1] (pH 7.4, 37° C., 0.1M phosphate buffer, 2 h, listed as Guanfacine 2-Butanol Carbamate Hydrochloride, Hydrochloride) was 93.4 and 93.6; in [1] (setting [13]) it was 100. Besides, the solubility was more than 10000 µg/mL in “physchem” (organic solvent or mixture) and less than 1000 µg/mL in the data set “physchem” (water).

As usually defined, the solubility is the dissolved amount per volume that the medium holds. The term Cmax denotes the peak of the concentration-time curve. In general, AUC refers to the area under the concentration-time curve, a measure of exposure. What is called Ki is a dissociation constant, usually derived from enzyme kinetics or from competition with a known ligand.
